Assay results published in ChEMBL document CHEMBL5506073, “Discovery of Novel Ortho-Aminophenol Derivatives Targeting Lipid Peroxidation with Potent Antiferroptotic Activities” (J Med Chem, 2024).
The source made the active and inactive calls. The calls are words filed in the database; no cut-off is given here.

Columns and labels:
[1] = tested on: HT-1080; assay: Inhibition of RSL3-induced ferroptosis in human HT-1080 cells assessed as cell viability incubated for 24 hrs by CCK8 assay; type: functional, cell-based; details: for EC50: HT-1080, 24 h
[2] = Antioxidant activity assessed as DPPH radical scavenging activity at 10 uM incubated for 30 mins by absorbance based assay; type: functional
[3] = tested on: HT-1080; assay: Inhibition of RSL3-induced ferroptosis in human HT-1080 cells assessed as cell viability at 0.5 uM incubated for 24 hrs by CCK8 assay; type: functional, cell-based

Row | EC50 [1] | SMILES | also measured
1 | 274 nM | Nc1c(O)cccc1C(=O)N/N=C/c1ccccc1 | –
2 | 348 nM | Nc1c(O)cccc1-c1nnc(SCc2ccc(F)cc2)o1 | –
3 | 177 nM | COc1ccc(CSc2nnc(-c3cccc(O)c3N)o2)cc1 | –
4 | 127 nM | CCOC(=O)c1cccc(O)c1N | inhibition [1]: Dose-Dependent Effect
5 | 526 nM | COC(=O)c1cccc(O)c1N | inhibition [1]: Dose-Dependent Effect
6 | 871 nM | Nc1c(O)cccc1-c1nnc(SCc2ccc([N+](=O)[O-])cc2)o1 | –
7 | > 1000 nM | Nc1c(O)cccc1C(=O)N/N=C/c1ccc(C(=O)O)cc1 | –
8 | 388 nM | CC(C)OC(=O)c1cccc(O)c1N | Activity [2]: Active; inhibition [3]: Active
9 | 528 nM | N#Cc1ccc(CSc2nnc(-c3cccc(O)c3N)o2)cc1 | –

More lines, now with the values behind:

Row | SMILES | EC50 [1] | also measured
10 | CCCOC(=O)c1cccc(O)c1N | 302 nM | Activity [2]: Active; inhibition [3]: Active
11 | CSc1nnc(-c2cccc(O)c2N)o1 | 99.2 nM | –
12 | Nc1c(O)cccc1-c1nnc(SCC(=O)O)o1 | > 1000 nM | –
13 | CCOC(=O)c1ccc(NC2CCCCC2)c(N)c1 | 203 nM | –
14 | Nc1c(O)cccc1C(=O)N/N=C/c1ccccn1 | 191 nM | –
15 | Nc1c(O)cccc1-c1nnc(S)o1 | 366 nM | –
16 | NNC(=O)c1cccc(O)c1N | > 1000 nM | –
17 | CCCCOC(=O)c1cccc(O)c1N | 385 nM | Activity [2]: Active; inhibition [3]: Active
18 | Cc1ccc(/C=N/NC(=O)c2cccc(O)c2N)cc1 | 2620 nM | –
19 | Nc1c(O)cccc1C(=O)N/N=C/c1ccc([N+](=O)[O-])cc1 | 649 nM | –
20 | N#Cc1cccc(/C=N/NC(=O)c2cccc(O)c2N)c1 | 727 nM | –
21 | Nc1c(O)cccc1-c1nnc(SCc2ccc3ccccc3c2)o1 | 603 nM | –
22 | Nc1c(O)cccc1C(=O)N/N=C/c1ccc[nH]1 | 343 nM | –
23 | Nc1c(O)cccc1-c1nc2cc(Cl)c(Cl)cc2[nH]1 | 293 nM | –
24 | Nc1c(O)cccc1-c1nc2ccccc2[nH]1 | 263 nM | –
25 | Nc1c(O)cccc1-c1nnc(SCc2ccccc2)o1 | 238 nM | –
26 | Cn1c(-c2cccc(O)c2N)nc2ccccc21 | 237 nM | –
